Results published in patent KR20070023630A, “티로신 키나제 억제제로서의 퀴나졸린 유도체” (아스트라제네카 아베, priority 2003, dated 2005).

Tested on: erbB2 phosphorylation in MCF7-derived cell line (MCF7 유래의 세포주에서 erbB2의 인산화)
Assay: Test (c): clone 24 phospho-erbB2 cell assay
Assay type: cell-based
Settings: Homo sapiens, clone 24 cells (MCF7-derived, overexpressing full-length erbB2), read-out: IC50 test (c): inhibition of erbB2 tyrosine kinase protein phosphorylation

SMILES: CN(C)CC(=O)N1CCC(Oc2ccc3ncnc(Nc4ccc(OCc5ccccn5)c(Cl)c4)c3c2)CC1 [실시예 8, N-[3-클로로-4-(피리딘-2-일메톡시)페닐]-6-({1-[(디메틸아미노)아세틸]피페리딘-4-일}옥시)퀴나졸린-4-아민]
- IC50: 210 nM

SMILES: CN(C)CC(=O)N1CCC(Oc2ccc3ncnc(Nc4ccc(OCc5cnccn5)c(Cl)c4)c3c2)CC1 [실시예 9, N-[3-클로로-4-(피라진-2-일메톡시)페닐]-6-({1-[(디메틸아미노)아세틸]피페리딘-4-일}옥시)퀴나졸린-4-아민]
- IC50: 150 nM

SMILES: CS(=O)(=O)N1CCC(COc2ccc3ncnc(Nc4ccc(OCc5ccccn5)c(Cl)c4)c3c2)C1 (stereo not drawn) [실시예 14, N-[3-클로로-4-(피리딘-2-일메톡시)페닐]-6-{[1-(메틸술포닐)피롤리딘-3-일]메톡시}퀴나졸린-4-아민]
- IC50: 4 nM
